Experimental data as given in patent US8431593B2, “Heteroaryl amide derivatives” (H. Lundbeck A/S, priority 2006, dated 2013).

Molecular target: T1, P2X7 receptor (Homo sapiens, UniProt Q99572)
T1 construct: host or cells: SH-SY5Y
T1 sequence (Q99572 1-595): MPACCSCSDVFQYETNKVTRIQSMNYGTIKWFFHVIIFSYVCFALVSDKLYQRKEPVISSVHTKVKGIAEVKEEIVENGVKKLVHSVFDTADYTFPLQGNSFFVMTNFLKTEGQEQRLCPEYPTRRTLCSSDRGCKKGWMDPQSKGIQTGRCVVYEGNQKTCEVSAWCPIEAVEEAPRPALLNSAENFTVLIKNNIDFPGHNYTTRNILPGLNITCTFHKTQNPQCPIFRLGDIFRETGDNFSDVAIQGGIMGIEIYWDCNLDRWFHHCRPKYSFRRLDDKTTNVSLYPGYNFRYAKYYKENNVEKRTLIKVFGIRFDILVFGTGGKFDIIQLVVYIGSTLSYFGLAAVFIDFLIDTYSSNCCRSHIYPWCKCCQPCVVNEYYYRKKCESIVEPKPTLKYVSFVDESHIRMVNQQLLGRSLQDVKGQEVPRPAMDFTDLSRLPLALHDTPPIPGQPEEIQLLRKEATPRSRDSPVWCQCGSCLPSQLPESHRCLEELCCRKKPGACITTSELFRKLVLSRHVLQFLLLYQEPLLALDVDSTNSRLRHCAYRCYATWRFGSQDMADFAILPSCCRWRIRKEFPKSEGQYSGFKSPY
Test: P2X7 calcium mobilization assay, high throughput, antagonist activity (Example 4A)
Assay type: cell-based
Details: 50% decrease in the fluorescence response of cells exposed to 80 μM 2′(3′)-O-(4-benzoyl-benzoyl)adenosine 5′-triphosphate; Example 4A; read-out: IC50
In short: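 100,000 cells/well, plated day -1. Dye 1 h → rinse → compound 1 h, RT → FLIPR^TETRA Ca2+ mobilization. Max RFU minus mean negative control (no agonist); mean agonist-well max as positive control.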

IC50 [nM]	Compound
< 2000	CCOC(=O)N1CCN(C(=O)c2cn3c(C(=O)NC[C@@H]4CC[C@H]5C[C@@H]4C5(C)C)cccc3n2)CC1 [Compound 452, ethyl 4-{[5-({[(1S,2R,5S)-6,6-dimethylbicyclo[3.1.1]hept-2-yl]methyl}carbamoyl)imidazo[1,2-a]pyridin-2-yl]carbonyl}piperazine-1-carboxylate]
< 2000	C[C@H]1CN(C(=O)c2cn3c(C(=O)NCC45CC6CC(CC(C6)C4)C5)cccc3n2)CCN1 [Compound 616, N-(adamantan-1-ylmethyl)-2-{[(3S)-3-methylpiperazin-1-yl]carbonyl}imidazo[1,2-a]pyridine-5-carboxamide]
< 2000	C[C@@H]1CNCCN1C(=O)c1cn2c(C(=O)NCC34CC5CC(CC(C5)C3)C4)cccc2n1 [Compound 600, N-(adamantan-1-ylmethyl)-2-{[(2R)-2-methylpiperazin-1-yl]carbonyl}imidazo[1,2-a]pyridine-5-carboxamide]
< 2000	COC(=O)C1CCCN1C(=O)c1cn2c(C(=O)NC[C@@H]3CC[C@H]4C[C@@H]3C4(C)C)cccc2n1 (stereo partly drawn) [Compound 480, methyl 1-{[5-({[(1S,2R,5S)-6.6-dimethylbicyclo[3.1.1]hept-2-yl]methyl}carbamoyl)imidazo[1,2-a]pyridin-2-yl]carbonyl}prolinate]
< 2000	CNCc1cn2c(C(=O)NCC34CC5CC(CC(C5)C3)C4)cccc2n1 [Compound 596, N-(adamantan-1-ylmethyl)-2-[(methylamino)methyl] imidazo[1,2-a] pyridine-5-carboxamide]
< 2000	Cn1nnnc1SCc1cn2c(C(=O)NCC34CC5CC(CC(C5)C3)C4)cccc2n1 [Compound 532, N-(adamantan-1-ylmethyl)-2-{[(1-methyl-1H-tetrazol-5-yl)thio]methyl}imidazo [1,2-a]pyridine-5-carboxamide]

Same assay, conditions: 50% decrease in the fluorescence response of cells exposed to 80 μM of 2′(3′)-O-(4-benzoyl-benzoyl)adenosine 5′-triphosphate; Example 4A; read-out: IC50

IC50 [nM]	Compound
< 2000	CC(C)NCCSCc1cn2c(C(=O)NCC34CC5CC(CC(C5)C3)C4)cccc2n1 [Compound 757, N-(adamantan-1-ylmethyl)-2-({[2-(isopropylamino)ethyl]thio}methyl) imidazo[1,2-a] pyridine-5-carboxamide]
< 2000	CN(C)CCCN(C(=O)c1cn2c(C(=O)NCC34CC5CC(CC(C5)C3)C4)cccc2n1)C1CCNCC1(C)C (stereo not shown) [Compound 621, 5-N-(adamantan-1-ylmethyl)-2-N-[3-(dimethylamino)propyl]-2-N-(3,3-dimethylpiperidin-4-yl)imidazo[1,2-a]pyridine-2,5-dicarboxamide]
< 2000	N[C@@H]1CCN(C(=O)c2cn3c(NC(=O)CC45CC6CC(CC(C6)C4)C5)cccc3n2)C1 [Compound 725, 2-adamantan-1-yl-N-(2-{[(3R)-3-aminopyrrolidin-1-yl]carbonyl}imidazo[1,2-a]pyridin-5-yl)acetamide]

Same assay, conditions: 50% decrease in the fluorescence response of cells exposed to 80 μM of 2′(3′)-O-(4-benzoyl-benzoyl)adenosine 5′-triphosphate; determined as in Example 4A; read-out: IC50

IC50 [nM]	Compound
< 2000	O=C(NCC1(c2ccc(Cl)cc2)CCCCC1)c1cccc2nc(C(Cc3ccc(Cl)cc3)C(=O)O)cn12 (stereo not shown) [Compound 935, 3-(4-chlorophenyl)-2-[5-({[1-(4-chlorophenyl)cyclohexyl]methyl}carbamoyl)imidazo[1,2-a]pyridin-2-yl] propanoic acid]
< 2000	COc1ccc(C2(CNC(=O)c3cccc4nc(CC(=O)N[C@@H]5CCNC5)cn34)CCCCC2)cc1 [Compound 952, N-{[1-(4-methoxyphenyl)cyclohexyl]methyl}-2-{2-oxo-2-[(3R)-pyrrolidin-3-ylamino]ethyl}imidazo[1,2-a]pyridine-5-carboxamide]
< 2000	CC(C)CC(CNC(=O)c1cccc2nc(C(=O)n3ccc(N)n3)cn12)c1ccc(Cl)cc1 (stereo not shown) [Compound 854, 2-[(3-amino-1H-pyrazol-1-yl)carbonyl]-N-[2-(4-chlorophenyl)-4-methylpentyl] imidazo [1,2-a]pyridine-5-carboxamide]
< 2000	CC(C)CC(CNC(=O)c1cccc2nc(CN3CCC[C@@H](N)C3)cn12)c1ccc(Cl)cc1 (stereo partly drawn) [Compound 916, 2-{[(3R)-3-aminopiperidin-1-yl]methyl}-N-[2-(4-chlorophenyl)-4-methylpentyl] imidazo [1,2-a]pyridine-5-carboxamide]
< 2000	COc1ccc(C2(CNC(=O)c3cccc4nc(CCC(=O)O)cn34)CCCCC2)cc1 [Compound 998, 3-[5-({[1-(4-methoxyphenyl)cyclohexyl]methyl}carbamoyl)imidazo[1,2-a]pyridin-2-yl]propanoic acid]
< 2000	CCOC(=O)Cc1nnnn1Cc1cn2c(C(=O)NCC34CC5CC(CC(C5)C3)C4)cccc2n1 [Compound 902, ethyl [1-({5-[(adamantan-1-ylmethyl)carbamoyl]imidazo[1,2-a]pyridin-2-yl}methyl)-1H-tetrazol-5-yl]acetate]

Same assay, conditions: P2X7 calcium mobilization, Example 4A; 50% decrease in the fluorescence response of cells exposed to 80 μM of (2′(3′)-O-(4-benzoyl-benzoyl)adenosine 5′-triphosephate); read-out: IC50

IC50 [nM]	Compound
< 2000	CC(C)CC(CNC(=O)c1cccc2nc(CN3CCOCC3)cn12)c1ccc(C(F)(F)F)nc1 (stereo not shown) [Compound 1053, N-{4-methyl-2-[6-(trifluoromethyl)pyridin-3-yl]pentyl}-2-(morpholin-4-ylmethyl) imidazo[1,2-a]pyridine-5-carboxamide]
< 2000	CC(C)CC(CNC(=O)c1cccc2nc(CCN3CCCC3)cn12)c1ccc(C(F)(F)F)cc1 (stereo not shown) [Compound 1042, N-{4-methyl-2-[4-(Irifluoromethyl)phenyl]pentyl}-2-(2-pyrrolidin-1-ylethyl) imidazo[1,2-a]pyridine-5-carboxamide]
< 2000	CC(C)CC(CNC(=O)c1cccc2nc(CN3CCOCC3)cn12)c1ccc(Cl)cc1 (stereo not shown) [Compound 1038, N-[2-(4-chlorophenyl)-4-methylpentyl]-2-(morpholin-4-ylmethyl) imidazo[1,2-a]pyridine-5-carboxamide]

Same assay, conditions: SH-SY5Y cells; 50% decrease in fluorescence response to 80 μM BzATP; read-out: IC50

IC50 [nM]	Compound
< 2000	CCOC(=O)Cc1cn2c(C(=O)NCC(CC(C)C)c3ccccc3)cccc2n1 (stereo not shown) [Compound 139, ethyl {5-[(4-methyl-2-phenylpentyl)car-bamoyl]imidazo[1,2-a]pyridin-2-yl}acetate]
< 2000	CCOC(=O)c1cn2c(C(=O)NCC34CC5CC(CC(C5)C3)C4)c(Cl)ccc2n1 [Compound 7, 5-[(adamantan-1-ylmethyl)-carbamoyl]-6-chloro-imidazo[1,2-a]pyridine-2-carboxylic acid ethyl ester]
< 2000	CC1(O)CCN(C(=O)c2cn3c(C(=O)NCC45CC6CC(CC(C6)C4)C5)cccc3n2)C1 (stereo not shown) [Compound 112, N-(adamantan-1-ylmethyl)-2-[(3-hydroxy-3-methylpyrrolidin-1-yl)carbonyl]imidazo[1,2-a]pyridine-5-carboxamide]
< 2000	CC(C)CC(CNC(=O)c1cccc2nc(CCl)cn12)c1ccccc1 (stereo not shown) [Compound 138, 2-(chloromethyl)-N-(4-methyl-2-phenylpentyl)imidazo[1,2-a]pyridine-5-carboxamide]
< 2000	CN(C)C1CCN(C(=O)c2cn3c(C(=O)NCC45CC6CC(CC(C6)C4)C5)cccc3n2)C1 (stereo not shown) [Compound 93, N-(adamantan-1-ylmethyl)-2-{[3-(dimethyl-amino)pyrrolidin-1-yl]carbonyl}imidazo[1,2-a]pyridine-5-carboxamide]

Same assay, conditions: fluorescence response of cells exposed to 80 μM 2′(3′)-O-(4-benzoyl-benzoyl)adenosine 5′-triphosphate; Example 4A; read-out: IC50

IC50 [nM]	Compound
< 2000	COCC1CCCN(C(=O)Cc2cn3c(C(=O)NCC(CC(C)C)c4ccccc4)cccc3n2)C1 (stereo not shown) [Compound 240, 2-{2-[3-(methoxymethyl)piperidin-1-yl]-2-oxoethyl}-N-(4-methyl-2-phenylpentyl)imidazo [1,2-a]pyridine-5-carboxamide]
< 2000	CCN(CC)C(=O)c1cn2c(NC(=O)CC34CC5CC(CC(C5)C3)C4)cccc2n1 [Compound 365, 5-[(adamantan-1-ylacetyl)amino]-N,N-diethylimidazo[1,2-a]pyridine-2-carboxamide]
